Reference: patent publication US9957251B2 (Takeda Pharmaceutical Company Limited, priority 2014, dated 2018)
Counter-ions that a name gives are not always drawn.

Assays:
[1] = test system: human multiple myeloma RPMI8226 cells; assay: Inhibitory activity against human multiple myeloma RPMI8226 cell growth (CellTiter-Glo); format: cell-based; details: 1 μM of the test compound, cultured for 8 days; for inhibition at 1 µM: Homo sapiens, RPMI-8226, 192 h, read-out: Percent inhibition of RPMI8226 cell growth (%); for Percent inhibition of RPMI8226 cell growth (%): 1 µM
Procedure, shortened: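 RPMI8226 cells (300/well) cultured 1 day at 37 °C, 5% CO2, then given compound at 1 μM for 8 days. ATP luminescence (CellTiter-Glo) read; percent inhibition relative to 0.1% DMSO wells.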

[2] = target: T1, CDK19 (CDC2L6/CycC) (Homo sapiens, UniProt Q9BWU1); assay: CDK19 inhibitory activity (TR-FRET, Kinase Tracer-236 displacement); format: binding; details: 1 μM of the test compound; for inhibition at 1 µM: read-out: Percent inhibition of CDK19 activity (%); for Percent inhibition of CDK19 activity (%): 1 µM
T1 construct: purchased Carna Biosciences
T1 sequence (Q9BWU1 whole entry): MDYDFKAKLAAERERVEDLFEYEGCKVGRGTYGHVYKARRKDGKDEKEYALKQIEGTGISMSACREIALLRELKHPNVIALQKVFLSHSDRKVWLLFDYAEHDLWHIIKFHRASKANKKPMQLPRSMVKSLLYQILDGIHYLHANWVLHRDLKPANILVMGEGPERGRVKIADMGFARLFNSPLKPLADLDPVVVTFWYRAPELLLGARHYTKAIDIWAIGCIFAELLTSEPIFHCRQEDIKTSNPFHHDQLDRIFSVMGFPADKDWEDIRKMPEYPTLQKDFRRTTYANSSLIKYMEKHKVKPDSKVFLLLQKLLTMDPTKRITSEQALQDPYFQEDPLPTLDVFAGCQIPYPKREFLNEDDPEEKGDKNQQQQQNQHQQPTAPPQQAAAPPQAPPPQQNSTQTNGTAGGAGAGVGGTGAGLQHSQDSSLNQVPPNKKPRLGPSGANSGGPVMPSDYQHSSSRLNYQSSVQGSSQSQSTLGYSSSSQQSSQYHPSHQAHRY
T1 sequence (P24863 whole entry partner): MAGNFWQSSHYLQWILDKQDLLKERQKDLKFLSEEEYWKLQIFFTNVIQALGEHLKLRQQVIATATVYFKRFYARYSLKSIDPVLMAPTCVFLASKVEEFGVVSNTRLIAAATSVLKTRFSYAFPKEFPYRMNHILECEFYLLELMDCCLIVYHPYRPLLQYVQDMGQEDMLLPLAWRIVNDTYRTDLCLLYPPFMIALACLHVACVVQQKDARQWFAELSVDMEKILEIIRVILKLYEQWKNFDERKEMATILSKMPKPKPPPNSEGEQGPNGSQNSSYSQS
Procedure, shortened: (§1)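 Binding assay measuring displacement of Kinase Tracer-236 (60 nM in the added mix) by compound, using Eu-cryptate anti-GST antibody with CDK8/CycC (84 ng/mL) or CDC2L6/CycC (87 ng/mL) solutions. After 1 h at room temperature, TR-FRET read at 615 and 665 nm (excitation 320 nm).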

[3] = test system: SW480 human colorectal cancer cells; assay: Antitumor efficacy in mice bearing SW480 human colorectal cancer xenograft; format: in vivo, BALB/c female nude mice; details: Mus musculus, SW480, 336 h, oral, 1 dose per day, 14 days, percent tumor growth relative to control group, read-out: T/C (%)
Procedure: The compound of the present invention was evaluated for its antitumor efficacy in mice bearing cancer derived from SW480 human colorectal cancer cells by the following method.
SW480 human colorectal cancer cells were transplanted into 6- to 7-week-old BALB/c female nude mice (CLEA Japan) by subcutaneous injection of 2.0×10^6 cells per mouse. At 7 to 14 days after the transplantation, the size of the engrafted tumor was measured, and the tumor volume was calculated according to the following formula. Tumor volume=major axis×minor axis×minor axis×(½)
Test subjects having an engrafted tumor with a tumor volume of approximately 100 mm^3 were selected and used in the experiment (6 subjects per group). A suspension of each test compound in a 0.5% methylcellulose solution (Wako Pure Chemical Industries) was orally administered to the mice for 14 days at the dose (mg/kg body weight, indicating the amount per dose) and the number of doses shown in Table 4. On the day before the start of the administration and the day before the completion of the administration, the tumor size was measured, and the tumor volume was calculated.
Percent tumor growth (T/C (%)) of the test compound administration group relative to the control administration group was calculated according to the following formula. T/C(%)=(tumor volume of the test compound administration group after the completion of the administration−tumor volume of the test compound administration group at the day before the start of the administration)/(tumor volume of the control administration group after the completion of the administration−tumor volume of the control administration group at the day before the start of the administration))×100

[4] = target: T2, CDK8/CycC (Homo sapiens, UniProt P49336); assay: CDK8 inhibitory activity (TR-FRET, Kinase Tracer-236 displacement); format: binding; details: 1 μM of the test compound; for inhibition at 1 µM: read-out: Percent inhibition of CDK8 activity (%); for Percent inhibition of CDK8 activity (%): 1 µM
T2 construct: purchased Carna Biosciences
T2 sequence (P49336 whole entry): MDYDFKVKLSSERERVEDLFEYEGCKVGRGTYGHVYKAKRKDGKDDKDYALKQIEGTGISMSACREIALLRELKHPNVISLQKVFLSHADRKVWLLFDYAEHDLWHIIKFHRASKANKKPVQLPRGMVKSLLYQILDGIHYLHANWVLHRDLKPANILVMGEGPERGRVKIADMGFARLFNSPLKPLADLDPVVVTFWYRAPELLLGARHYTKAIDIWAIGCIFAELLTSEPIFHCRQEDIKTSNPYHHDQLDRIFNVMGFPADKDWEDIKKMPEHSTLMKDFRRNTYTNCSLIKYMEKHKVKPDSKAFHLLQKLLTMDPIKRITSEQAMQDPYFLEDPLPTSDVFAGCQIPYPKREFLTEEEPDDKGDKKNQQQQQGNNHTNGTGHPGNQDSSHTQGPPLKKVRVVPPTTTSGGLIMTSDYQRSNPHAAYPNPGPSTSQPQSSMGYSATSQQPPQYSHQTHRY
T2 sequence (P24863 whole entry partner): as the sequence (P24863 whole entry partner) above
Procedure, shortened: as §1

inhibition at 1 µM [2] [%]	inhibition at 1 µM [4] [%]	Structure (SMILES)	inhibition at 1 µM [1] [%]	also measured
102	92	O=C(/C=C/c1cnccc1-c1cnn(C2CC2)c1)Nc1ccc(CN2CCOCC2)cc1 [Example 97, (2E)-3-(4-(1-Cyclopropyl-1H-pyrazol-4-yl)pyridin-3-yl)-N-(4-(morpholin-4-ylmethyl)phenyl)acrylamide]	53	response vs control in vivo at 50 mg/kg [3]: 37%
99	99	O=C(/C=C/c1cnccc1-c1cnn(C2CC2)c1)Nc1ccc(CN2CCOCC2)cc1F [Example 194, (2E)-3-(4-(1-Cyclopropyl-1H-pyrazol-4-yl)pyridin-3-yl)-N-(2-fluoro-4-(morpholin-4-ylmethyl)phenyl)acrylamide]	53	response vs control in vivo at 50 mg/kg [3]: 36%
100	102	Cn1cc(-c2ccncc2/C=C/C(=O)Nc2ccc3c(c2)CN(CC(F)(F)F)CC3)cn1 [Example 216, (2E)-3-(4-(1-Methyl-1H-pyrazol-4-yl)pyridin-3-yl)-N-(2-(2,2,2-trifluoroethyl)-1,2,3,4-tetrahydroisoquinolin-7-yl)acrylamide]	59	response vs control in vivo at 50 mg/kg [3]: 43%
96	101	O=C(/C=C/c1cncc(F)c1-c1cnn(C2CC2)c1)Nc1ccc(CN2CCOCC2)cc1F [Example 273, (2E)-3-(4-(1-Cyclopropyl-1H-pyrazol-4-yl)-5-fluoropyridin-3-yl)-N-(2-fluoro-4-(morpholin-4-ylmethyl)phenyl)acrylamide]	64	response vs control in vivo at 50 mg/kg [3]: 36%
102	98	Cn1cc(-c2ccncc2/C=C/C(=O)Nc2ccc3c(c2)CN(CC(F)(F)F)C3)cn1 [Example 289, (2E)-3-(4-(1-Methyl-1H-pyrazol-4-yl)pyridin-3-yl)-N-(2-(2,2,2-trifluoroethyl)-2,3-dihydro-1H-isoindol-5-yl)acrylamide]	64	response vs control in vivo at 50 mg/kg [3]: 31%
101	105	O=C(/C=C/c1cnccc1-c1cnn(C2CC2)c1)Nc1ccc(CN2CC(F)(F)C2)cc1 [Example 309, (2E)-3-(4-(1-Cyclopropyl-1H-pyrazol-4-yl)pyridin-3-yl)-N-(4-((3,3-difluoroazetidin-1-yl)methyl)phenyl)acrylamide]	58	response vs control in vivo at 30 mg/kg [3]: 51%
100	104	O=C(/C=C/c1cncc(F)c1-c1cnn(C2CC2)c1)Nc1ccc2c(c1)CN(CC(F)(F)F)C2 [Example 324, (2E)-3-(4-(1-Cyclopropyl-1H-pyrazol-4-yl)-5-fluoropyridin-3-yl)-N-(2-(2,2,2-trifluoroethyl)-2,3-dihydro-1H-isoindol-5-yl)acrylamide]	58	response vs control in vivo at 30 mg/kg [3]: 29%
96	101	Cn1cnc2ccc(-c3c(F)cncc3/C=C/C(=O)Nc3ccc4c(c3)CN(CC(F)(F)F)C4)cc21 [Example 357, (2E)-3-(5-fluoro-4-(1-methyl-1H-benzimidazol-6-yl)pyridin-3-yl)-N-(2-(2,2,2-trifluoroethyl)-2,3-dihydro-1H-isoindol-5-yl)acrylamide]	69	–
101	87	Cn1cnc2ccc(-c3c(F)cncc3/C=C/C(=O)Nc3ccc(CN4CC(F)(F)C4)cc3)cc21 [Example 358, (2E)-N-(4-((3,3-Difluoroazetidin-1-yl)methyl)phenyl)-3-(5-fluoro-4-(1-methyl-1H-benzimidazol-6-yl)pyridin-3-yl)acrylamide]	67	–
102	103	Cn1cc(-c2c(F)cncc2/C=C/C(=O)Nc2ccc(CN3CC(F)(F)C3)cc2)cn1 [Example 359, (2E)-N-(4-((3,3-Difluoroazetidin-1-yl)methyl)phenyl)-3-(5-fluoro-4-(1-methyl-1H-pyrazol-4-yl)pyridin-3-yl)acrylamide]	65	response vs control in vivo at 30 mg/kg [3]: 36%
99	105	Cn1cc(-c2ccncc2/C=C/C(=O)Nc2ccc(N3CC(F)(F)C3)cc2)cn1 [Example 363, (2E)-N-(4-(3,3-difluoroazetidin-1-yl)phenyl)-3-(4-(1-methyl-1H-pyrazol-4-yl)pyridin-3-yl)acrylamide]	50	–
99	107	O=C(/C=C/c1cnccc1-c1cnn(C2CC2)c1)Nc1ccc(CN2CC(F)C2)cc1 [Example 365, (2E)-3-(4-(1-Cyclopropyl-1H-pyrazol-4-yl)pyridin-3-yl)-N-(4-((3-fluoroazetidin-1-yl)methyl)phenyl)acrylamide]	58	–
74	105	O=C(/C=C/c1cnccc1-c1cnn(C2CC2)c1)Nc1ccc(CN2CC(F)(F)C2)cc1F [Example 370, (2E)-3-(4-(1-cyclopropyl-1H-pyrazol-4-yl)pyridin-3-yl)-N-(4-((3,3-difluoroazetidin-1-yl)methyl)-2-fluorophenyl)acrylamide]	51	–
–	–	O=C(/C=C/c1cnccc1-c1cnn(C2CC2)c1)Nc1ccc(CN2CC(F)(F)C2)cc1 [Example 373, (2E)-3-(4-(1-Cyclopropyl-1H-pyrazol-4-yl)pyridin-3-yl)-N-(4-((3,3-difluoroazetidin-1-yl)methyl)phenyl)acrylamide sulfate]	–	Percent inhibition of RPMI8226 cell growth (%) ([1]; sulfate): 70%; Percent inhibition of CDK19 activity (%) ([2]; sulfate): 101%; Percent inhibition of CDK8 activity (%) ([4]; sulfate): 101%
–	–	O=C(/C=C/c1cnccc1-c1cnn(C2CC2)c1)Nc1ccc(CN2CC(F)(F)C2)cc1 [Example 374, (2E)-3-(4-(1-Cyclopropyl-1H-pyrazol-4-yl)pyridin-3-yl)-N-(4-((3,3-difluoroazetidin-1-yl)methyl)phenyl)acrylamide diphosphate]	–	Percent inhibition of RPMI8226 cell growth (%) [1]: 69%; Percent inhibition of CDK19 activity (%) [2]: 100%; Percent inhibition of CDK8 activity (%) [4]: 100%
–	–	O=C(/C=C/c1cnccc1-c1cnn(C2CC2)c1)Nc1ccc(CN2CC(F)(F)C2)cc1 [Example 375, (2E)-3-(4-(1-Cyclopropyl-1H-pyrazol-4-yl)pyridin-3-yl)-N-(4-((3,3-difluoroazetidin-1-yl)methyl)phenyl)acrylamide methanesulfonate]	–	Percent inhibition of RPMI8226 cell growth (%) ([1]; methanesulfonate): 70%; Percent inhibition of CDK19 activity (%) ([2]; methanesulfonate): 101%; Percent inhibition of CDK8 activity (%) ([4]; methanesulfonate): 102%
–	–	O=C(/C=C/c1cnccc1-c1cnn(C2CC2)c1)Nc1ccc(CN2CC(F)(F)C2)cc1 [Example 376, (2E)-3-(4-(1-Cyclopropyl-1H-pyrazol-4-yl)pyridin-3-yl)-N-(4-((3,3-difluoroazetidin-1-yl)methyl)phenyl)acrylamide hemifumarate]	–	Percent inhibition of RPMI8226 cell growth (%) [1]: 70%; Percent inhibition of CDK19 activity (%) [2]: 100%; Percent inhibition of CDK8 activity (%) [4]: 99%
–	–	O=C(/C=C/c1cnccc1-c1cnn(C2CC2)c1)Nc1ccc(CN2CC(F)(F)C2)cc1 [Example 377, (2E)-3-(4-(1-Cyclopropyl-1H-pyrazol-4-yl)pyridin-3-yl)-N-(4-((3,3-difluoroazetidin-1-yl)methyl)phenyl)acrylamide hemisuccinate]	–	Percent inhibition of RPMI8226 cell growth (%) [1]: 66%; Percent inhibition of CDK19 activity (%) [2]: 100%; Percent inhibition of CDK8 activity (%) [4]: 102%
